PubChem BioAssay AID248 (DTP/NCI, 2004)
“And” between values parts separate entries of the source, which are not always exact repeats. Identical values can stand only once. Inconclusive results and toxic doses are left out. No stated cut-off is given here; in the data, active means T/C of 150% or more; inactive means T/C below 125%.

System: L1210 leukemia ip in BDF1 mice, survival T/C
Experiment: NCI In Vivo Anticancer Drug Screen. Data for tumor model L1210 Leukemia (intraperitoneal) in B6D2F1 (BDF1) mice
Conditions: endpoint: mean survival time, higher = longer survival
Procedure, shortened: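 Tumor cells were implanted, animals were treated, and survival was followed. The result divides the treated measurement by the vehicle-control measurement.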

[1] = dose: 100.0 mg/kg/injection, schedule: Q04DX002 (ip), vehicle: saline with Tween-80
[2] = dose: 200.0 mg/kg/injection, schedule: Q04DX002 (ip), vehicle: saline with Tween-80
[3] = dose: 100.0 mg/kg/injection, schedule: Q01DX009 (ip), vehicle: Klucel (hydroxypropylcellulose) (HPC)
[4] = dose: 200.0 mg/kg/injection, schedule: Q01DX009 (ip), vehicle: Klucel (hydroxypropylcellulose) (HPC)
[5] = dose: 50.0 mg/kg/injection, schedule: Q01DX009 (ip), vehicle: saline with Tween-80
[6] = dose: 100.0 mg/kg/injection, schedule: Q01DX009 (ip), vehicle: saline with Tween-80
[7] = dose: 200.0 mg/kg/injection, schedule: Q01DX009 (ip), vehicle: saline with Tween-80
[8] = dose: 100.0 mg/kg/injection, schedule: Q04DX003 (ip), vehicle: saline with Tween-80
[9] = dose: 200.0 mg/kg/injection, schedule: Q04DX003 (ip), vehicle: saline with Tween-80
[10] = dose: 400.0 mg/kg/injection, schedule: Q04DX003 (ip), vehicle: saline with Tween-80
[11] = dose: 100.0 mg/kg/injection, schedule: Q01DX001 (ip), vehicle: saline with Tween-80
[12] = dose: 200.0 mg/kg/injection, schedule: Q01DX001 (ip), vehicle: saline with Tween-80
[13] = dose: 400.0 mg/kg/injection, schedule: Q01DX009 (ip), vehicle: saline with Tween-80
[14] = dose: 400.0 mg/kg/injection, schedule: Q04DX002 (ip), vehicle: saline with Tween-80

Measured: T/C

OC1/C=C\CCCCC1 (stereo unspecified)
inactive: dose: 100.0 mg/kg/injection, schedule: Q01DX001 (ip), vehicle: saline 98 % of control | dose: 200.0 mg/kg/injection, schedule: Q01DX001 (ip), vehicle: saline 93 % of control | dose: 400.0 mg/kg/injection, schedule: Q01DX001 (ip), vehicle: saline 98 % of control

O=C(Nc1ccccc1)c1ccc(C(F)(F)F)cc1O
inactive: [1] 105 % of control | [2] 103 % of control

Cn1nc(N)c2cc3c(=O)[nH]cnc3nc21
inactive: dose: 100.0 mg/kg/injection, schedule: Q01DX001 (ip), vehicle: Klucel (hydroxypropylcellulose) (HPC) 96 % of control | dose: 200.0 mg/kg/injection, schedule: Q01DX001 (ip), vehicle: Klucel (hydroxypropylcellulose) (HPC) 104 % of control | dose: 400.0 mg/kg/injection, schedule: Q01DX001 (ip), vehicle: Klucel (hydroxypropylcellulose) (HPC) 101 % of control

CC1(C)c2cc3ccc(Cl)cc3nc2-c2ccccc2C1(C)O (stereo unspecified)
inactive: [3] 89 % of control | dose: 100.0 mg/kg/injection, schedule: Q04DX003 (ip), vehicle: acetone 98 % of control | [4] 89 % of control | dose: 200.0 mg/kg/injection, schedule: Q04DX003 (ip), vehicle: acetone 101 % of control | dose: 400.0 mg/kg/injection, schedule: Q04DX003 (ip), vehicle: acetone 91 % of control

Nc1ccn(C2OC(COC3CCCCO3)C(OC3CCCCO3)C2OC2CCCCO2)c(=O)n1 (stereo unspecified)
inactive: dose: 50.0 mg/kg/injection, schedule: Q01DX009 (ip), vehicle: saline 95 % of control | dose: 100.0 mg/kg/injection, schedule: Q01DX005 (ip), vehicle: saline 110 % of control | dose: 100.0 mg/kg/injection, schedule: Q01DX009 (ip), vehicle: saline 104 % of control | dose: 200.0 mg/kg/injection, schedule: Q01DX005 (ip), vehicle: saline 94 % of control | dose: 200.0 mg/kg/injection, schedule: Q01DX009 (ip), vehicle: saline 101 % of control

S=c1nc[nH]c2cc[nH]c12
inactive: dose: 100.0 mg/kg/injection, schedule: Q01DX001 (ip), vehicle: other 95 % of control | dose: 200.0 mg/kg/injection, schedule: Q01DX001 (ip), vehicle: other 98 % of control | dose: 400.0 mg/kg/injection, schedule: Q01DX001 (ip), vehicle: other 101 % of control

Cc1ccc(S(=O)(=O)NC(=O)N(Cc2ccccc2)C(C)(C)C)cc1
inactive: dose: 25.0 mg/kg/injection, schedule: Q01DX009 (ip), vehicle: Klucel (hydroxypropylcellulose) (HPC) 107 % of control | dose: 50.0 mg/kg/injection, schedule: Q01DX009 (ip), vehicle: Klucel (hydroxypropylcellulose) (HPC) 100 % of control

Cc1ccc(S(=O)(=O)N(CC(=O)O)c2c[nH]c(C(=O)O)c2)cc1
inactive: dose: 100.0 mg/kg/injection, schedule: Q01DX009 (ip), vehicle: acetone 92 % of control | dose: 200.0 mg/kg/injection, schedule: Q01DX009 (ip), vehicle: acetone 95 % of control | dose: 400.0 mg/kg/injection, schedule: Q01DX009 (ip), vehicle: acetone 88 % of control

CSc1cc2c(cc1NC(C)=O)C(=O)c1cc(F)ccc1-2
inactive: dose: 100.0 mg/kg/injection, schedule: Q01DX001 (ip), vehicle: carboxymethylcellulose (CMC) 98 % of control | dose: 200.0 mg/kg/injection, schedule: Q01DX001 (ip), vehicle: carboxymethylcellulose (CMC) 101 % of control | dose: 400.0 mg/kg/injection, schedule: Q01DX001 (ip), vehicle: carboxymethylcellulose (CMC) 95 % of control

C=C1C(=O)OC2CC(C)C3CC(OCCCl)OC(OCCCl)C3(C)CC12 (stereo unspecified)
inactive: dose: 1.25 mg/kg/injection, schedule: Q01DX005 (ip), vehicle: other 104 % of control | dose: 2.5 mg/kg/injection, schedule: Q01DX005 (ip), vehicle: other 106 % of control | dose: 5.0 mg/kg/injection, schedule: Q01DX005 (ip), vehicle: other 101 % of control | dose: 10.0 mg/kg/injection, schedule: Q01DX005 (ip), vehicle: other 101 % of control | dose: 20.0 mg/kg/injection, schedule: Q01DX005 (ip), vehicle: other 113 % of control

O=C(CCC1c2ccccc2C(=O)c2ccccc21)c1ccccc1
inactive: [5] 108 % of control | [6] 97 % of control | [7] 101 % of control

Cc1cc2ncn(CC(=O)NN)c2cc1C
inactive: [6] 86 % of control | [8] 92 % of control | [9] 95 % of control | [10] 92 % of control

O=C(CCCc1ccc(N(CCCl)CCCl)cc1)NCc1ccc(N(CCCl)CCCl)cc1
inactive: dose: 4.0 mg/kg/injection, schedule: Q12HX018 (sc), vehicle: other 103 % of control | dose: 6.0 mg/kg/injection, schedule: Q12HX018 (sc), vehicle: other 103 % of control | dose: 8.0 mg/kg/injection, schedule: Q12HX018 (sc), vehicle: other 100 % of control

CCCCCCN(CCCCCC)CP(=S)(CN(CCCCCC)CCCCCC)CN(CCCCCC)CCCCCC
inactive: [11] 99 % of control | [12] 104 % of control

O=[N+]([O-])c1cc(Br)cc(Br)c1
inactive: [6] 97 % of control | [8] 91 % of control | [7] 99 % of control | [9] 94 % of control | [13] 93 % of control | [10] 93 % of control

O=C(N/N=C\c1cccc2ccccc12)C(=O)N/N=C/c1cccc2ccccc12
inactive: [8] 88 % of control | [9] 88 % of control | [10] 91 % of control

C[N+](C)(C)/N=C1\CCc2ccccc21
inactive: [5] 100 % of control | dose: 50.0 mg/kg/injection, schedule: Q04DX003 (ip), vehicle: saline with Tween-80 110 % of control | [11] 97 % of control | [6] 97 % of control | [8] 98 % of control | [12] 100 % of control | [7] 103 % of control | [9] 91 % of control

CCN=C(N)c1ccc(NC(=O)c2ccc(C(=O)Nc3ccc(C(N)=NCC)cc3)cc2)cc1
inactive: dose: 1.0 mg/kg/injection, schedule: Q01DX Z (ip), vehicle: other 115 % of control | dose: 2.0 mg/kg/injection, schedule: Q01DX Z (ip), vehicle: other 91 % of control | dose: 8.0 mg/kg/injection, schedule: Q01DX Z (ip), vehicle: carboxymethylcellulose (CMC) 100 % of control

O=C(O)c1ccc(=O)[nH]n1
inactive: dose: 100.0 mg/kg/injection, schedule: Q04DX002 (ip), vehicle: Klucel (hydroxypropylcellulose) (HPC) 115 % of control | dose: 200.0 mg/kg/injection, schedule: Q04DX002 (ip), vehicle: Klucel (hydroxypropylcellulose) (HPC) 93 % of control | dose: 400.0 mg/kg/injection, schedule: Q04DX002 (ip), vehicle: Klucel (hydroxypropylcellulose) (HPC) 89 % of control

COC(=O)[CH]([Hg][CH](C(=O)OC)C(=O)OC)C(=O)OC
inactive: dose: 3.12 mg/kg/injection, schedule: Q04DX002 (ip), vehicle: Klucel (hydroxypropylcellulose) (HPC) 88 % of control | dose: 6.25 mg/kg/injection, schedule: Q04DX002 (ip), vehicle: Klucel (hydroxypropylcellulose) (HPC) 98 % of control | dose: 12.5 mg/kg/injection, schedule: Q04DX002 (ip), vehicle: Klucel (hydroxypropylcellulose) (HPC) 91 % of control

[O-]c1c[n+](C23CCC(c4ccccc42)c2ccccc23)no1
inactive: [3] 102 % of control | dose: 100.0 mg/kg/injection, schedule: Q04DX003 (ip), vehicle: Klucel (hydroxypropylcellulose) (HPC) 100 % of control | [4] 102 % of control | dose: 200.0 mg/kg/injection, schedule: Q04DX003 (ip), vehicle: Klucel (hydroxypropylcellulose) (HPC) 103 % of control | dose: 400.0 mg/kg/injection, schedule: Q01DX009 (ip), vehicle: Klucel (hydroxypropylcellulose) (HPC) 95 % of control | dose: 400.0 mg/kg/injection, schedule: Q04DX003 (ip), vehicle: Klucel (hydroxypropylcellulose) (HPC) 100 % of control

S=C(NC1CCCCC1)N1CCC(CCCC2CCN(C(=S)NC3CCCCC3)CC2)CC1
inactive: [6] 95 % of control | [7] 97 % of control | [13] 97 % of control

CCN(CC)c1ccc(N=Nc2cc(Cl)ccc2Cl)c(NC(=O)CCC(=O)O)c1
inactive: [8] 96 % of control | [9] 96 % of control | [10] 95 % of control

CCOP(=O)(OCC)C(c1ccccc1)(c1ccccc1)c1ccccc1
inactive: [1] 90 % of control | [2] 90 % of control | [14] 90 % of control

CNC(=O)N(C1CCCCC1)C1CCCCC1
inactive: [11] 109 % of control | [6] 94 % of control and 111 % of control | [1] 105 % of control and 108 % of control | [12] 109 % of control | [7] 86 % of control and 91 % of control | [2] 92 % of control and 108 % of control | dose: 400.0 mg/kg/injection, schedule: Q01DX001 (ip), vehicle: saline with Tween-80 108 % of control | [13] 101 % of control and 91 % of control | [14] 96 % of control and 108 % of control
